From US9695162B2, “Sweet flavor modifier” (SENOMYX, INC., priority 2013, dated 2017) come the findings set out here.

In series [1] the test system is human panelists (sweet taste). Kind of series: Paired comparison taste test: enhancement of sucrose at pH 2.8 (6% sucrose + compound vs. 10%, 11% or 12% sucrose). The class given is in vivo. The method, then:
(§1) Experiment 1: Sweet Flavor and Sweet Flavor Enhancement Measurement Using Human Panelists Conducting a Paired Comparison Test
(§2) Test samples containing experimental compounds were presented in pairs to the panelist and they were asked to determine which of the sample is sweeter. […] A group of 10-16 or more panelists participated in each test. Subjects refrained from eating or drinking (except water) for at least 1 hour prior to the test. Subjects rinsed with water several times to clean the mouth.
(§3) Taste tests were performed with sucrose or HFCS as the sweetener in the presence or absence of compound. A 0.2% stock solution of compound in water with sodium bicarbonate was prepared and then this stock solution was diluted in the final sample to achieve the targeted final concentration of compound. For the sample evaluated at pH 2.8 the pH of the solution is decreased to about pH 2.8 using citric acid. Taste samples were also prepared in a low sodium phosphate buffer (pH 7.1; “LSB”) lacking sucrose or HFCS to evaluate the taste of the compound alone. Low sodium phosphate buffer consists of 0.3 mM KCl, 0.5 mM Na2HPO4, and 0.175 mM KH2PO4. Sample volumes are usually 20 ml.
(§4) In one paired comparison test, the panelist was presented with two different samples and asked to identify the sample which is sweeter. The samples within a paired comparison test were presented in a randomized, counterbalanced order. Panelists had up to a 1 minute delay between taste tests to clear the mouth of any tastes.
(§5) Binomial probability tables were used to determine the probability of the correct number of responses occurring for each test at alpha=0.05

Series [2] relates to human panelists (sweet taste). Kind of series: Sweetness threshold: paired comparison taste test, LSB + compound vs. 1% sucrose. The class given is in vivo. The method, then:
as §1, §2, §3, §4, §5

Series [3] relates to human panelists (sweet taste). Kind of series: Paired comparison taste test: enhancement of sucrose at pH 7.1 (6% sucrose + compound vs. 10%, 11% or 12% sucrose). Type of series: in vivo. The method, then: as §1, §2, §3, §4, §5
Series [4] deals with human panelists (sweet taste). Briefly: Paired comparison taste test: enhancement of HFCS at pH 2.8 (6% HFCS + compound vs. 8% or 9% HFCS). The class given is in vivo. The method, then:
as §1, §2, §3
In one paired comparison test, the panelist was presented with two different samples and asked to identify the sample which is sweeter. […]

[5] abbreviates: 11% Sucrose vs 6% Sucrose + 5 ppm Compound A1, n = 33.
[6] abbreviates: 1% Sucrose vs LSB + 25 ppm Compound A1, n = 26 (13 panelists × 2 reps).
[7] abbreviates: 10% Sucrose vs 6% Sucrose + 10 ppm Compound A1, n = 32 (16 panelists × 2 reps).

As to `OC[C@H]1O[C@@](CO)(O[C@H]2O[C@H](CO)[C@@H](O)[C@H](O)[C@H]2O)[C@@H](O)[C@@H]1O` [Sucrose, sucrose, reference compound], the “Sample selected as sweeter by panelists (Total)” value is 21 in series [1] (setting [5]); 22 in series [1] (12% Sucrose vs 6% Sucrose + 5 ppm Compound A6, n = 48 (16 panelists × 3 reps)); 18 in series [2] (1% Sucrose vs LSB + 10 ppm Compound A6, n = 30 (10 panelists × 3 reps)); 14 in series [2] (setting [6]); 14 in series [3] (setting [7]); 24 in series [3] (11% Sucrose vs 6% Sucrose + 5 ppm Compound A6, n = 48 (16 panelists × 3 reps)).

Regarding `CC(C)(COc1cccc2c1C(N)=NS(=O)(=O)N2)NC(=O)c1ccncc1` [Compound A1, N-(1-(4-amino-2,2-dioxido-1H-benzo[c][1,2,6]thiadiazin-5-yloxy)-2-methylpropan-2-yl)isonicotinamide], the figures for the “Sucrose solution of equivalent sweetness (% sucrose)” value in series [1] (5 ppm compound in 6% sucrose) and in series [3] (10 ppm compound in 6% sucrose) were ~11% and ~10%, respectively. Besides, the “Sample selected as sweeter by panelists (Total)” value in series [1] (setting [5]) amounted to 12; in series [4] (9% High Fructose Corn Syrup vs 6% High Fructose Corn Syrup + 20 ppm Compound A1, n = 32 (16 panelists × 2 reps)) it was 12; in series [2] (setting [6]) it was 12; in series [3] (setting [7]) it was 18. Also, the “HFCS solution of equivalent sweetness (% High Fructose Corn Syrup)” value in series [4] (5 ppm compound in 6% High Fructose Corn Syrup) was ~9%.

One may read the melting point as the temperature, or range, at which the solid turns liquid. As for `CC(C)(COc1cccc2c1C(N)=NS(=O)(=O)N2)NC(=O)c1ccnc(-n2ccnc2N)c1.Cl`, the melting point is 235 to 237 °C (dec.).

Take `CC(C)(COc1cccc2c1C(N)=NS(=O)(=O)N2)NC(=O)c1ccnc(-n2cnc(C(=O)O)c2)c1` [Example 37, 1-(4-((1-((4-amino-2,2-dioxido-1H-benzo[c][1,2,6]thiadiazin-5-yl)oxy)-2-methylpropan-2-yl)carbamoyl)pyridine-2yl)1H-imidazole-4-carboxylic acid]: the melting point was > 200 °C.

On to `CC(C)(COc1cccc2c1C(N)=NS(=O)(=O)N2)NC(=O)c1ccnc(-n2cnc(CO)c2)c1` [Example 36, N-(1-((4-amino-2,2-dioxido-1H-benzo[c][1,2,6]thiadiazin-5-yl)oxy)-2-methylpropan-2-yl)-2-(4-(hydroxymethyl)-1H-imidazol-1-yl)isonicotinamide], for which the melting point is > 200 °C.
